Counter-ions that a name gives are not always drawn. Like-named read-outs stand apart in the source and are kept apart here.

The target in the assay is T1, human A3AR (Homo sapiens, UniProt P0DMS8).
T1 construct: expressed in transfected cells
T1 sequence (P0DMS8 1-318): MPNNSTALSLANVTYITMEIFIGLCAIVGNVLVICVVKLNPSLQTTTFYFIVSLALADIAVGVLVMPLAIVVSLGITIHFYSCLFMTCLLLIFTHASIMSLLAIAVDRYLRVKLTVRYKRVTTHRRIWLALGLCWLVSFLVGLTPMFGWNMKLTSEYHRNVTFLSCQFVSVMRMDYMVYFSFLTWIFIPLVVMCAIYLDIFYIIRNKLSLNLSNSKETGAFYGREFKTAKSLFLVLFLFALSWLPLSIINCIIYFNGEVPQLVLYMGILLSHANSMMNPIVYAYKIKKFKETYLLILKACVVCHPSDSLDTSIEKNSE
Put plainly: LOPAC library primary screen: single concentration (10 μM) inhibition of 25 nM CA200645 binding, PHERAstar FS. The following applies: for % Total CA200645 binding: % of 25 nM CA200645 binding in the presence of 10 μM compound, LOPAC full screen, A3AR CHO cells.

Where [1] appears, read: compounds tested at 10 µM, % of control wells (1% DMSO and 25 nM CA200645), whole live cells expressing the A3AR, mean ± SD, three experiments in duplicate.
The mark [2] stands for this setting: % of control wells (1% DMSO and 25 nM CA200645), compounds at 10 µM, whole live cells expressing the A3AR, mean ± SD, three experiments in duplicate.

On to `O=C(O)COCCN1CCN(C(c2ccccc2)c2ccc(Cl)cc2)CC1` (centres unmarked) [Cetirizine dihydrochloride], for which the “% 25 nM CA200645 binding” value was found to be 98.6 ± 19.3%. Same read-out and setting: in the case of `NC/C=C\C(=O)O` [cis-4-Aminocrotonic acid] it was 103.0 ± 10.1%; in that of `O=C(O)CCC(=O)O.c1ccc(C2(c3ccccc3)CC2C2=NCCN2)cc1` (centres unmarked) [Cibenzoline succinate], 95.2 ± 7.2%. For `Nc1nc(Nc2ccccc2)nc2c1ncn2[C@@H]1O[C@H](CO)[C@@H](O)[C@H]1O` [CV1808, 2-phenylaminoadenosine, reference compound], the “% 25 nM CA200645 binding” value worked out at 55.3 ± 19.9% and the “% Total CA200645 binding” value came out at 53.3 ± 19.9%. Further, where the note is “10 μM compound, 25 nM CA200645, A3AR CHO cells”, the “hit in LOPAC primary screen (inhibited the binding of CA200645 by >40%)” value is “identified”. With `NC(=O)N1c2ccccc2C=Cc2ccccc21` [Carbamazepine], the “% 25 nM CA200645 binding” value is on record as 89.8 ± 14.0%. On the same count and under the same terms, under `CCc1c(C)[nH]c2c1C(=O)C(CN1CCOCC1)CC2` (centres unmarked) [Molindone hydrochloride] stands 91.2 ± 7.2%. The same measure, in the same setting: under `CC(C)NC[C@@H](O)c1ccc(O)c(O)c1.O=C(O)C(O)C(O)C(=O)O` [S(+)-Isoproterenol (+)-bitartrate] stands 101.2 ± 2.4%. The same measure, in the same setting: under `CCCc1nn(C)c2c(=O)[nH]c(-c3cc(S(=O)(=O)N4CCN(C)CC4)ccc3OCC)nc12.O=C(O)CC(O)(CC(=O)O)C(=O)O` [Sildenafil citrate salt] stands 88.1 ± 8.0%; under `CC(C)OC(=O)C(C)(C)Oc1ccc(C(=O)c2ccc(Cl)cc2)cc1` [Fenofibrate], 87.6 ± 17.1%. `C[N+]1(C)[C@@H]2CC[C@H]1C[C@@H](OC(=O)C(CO)c1ccccc1)C2` (some centres unmarked) [Atropine methyl nitrate]: the “% 25 nM CA200645 binding” value under setting [1] is listed as 90.8 ± 8.8%.

As to `NC(=NCc1ccccc1)NC(=O)c1nc(Cl)c(N)nc1N` [Benzamil hydrochloride], the “% 25 nM CA200645 binding” value amounted to 95.3 ± 5.6%. The same measure, in the same setting: under `CNC[C@H](O)c1ccc(O)c(O)c1` [(-)-Epinephrine bitartrate] stands 100.5 ± 6.3%; under `O=C(O)C1CCNCC1` [Isonipecotic acid], 88.5 ± 19.5%; under `CN1C2CCCC1CC(NC(=O)c1nn(C)c3ccccc13)C2` (centres unmarked) [Granisetron hydrochloride], 100.4 ± 14.5%. As to `CC(C)(C)c1ccc(S(=O)(=O)/C=C/C#N)cc1` [Bay 11-7085], the “% 25 nM CA200645 binding” value amounted to 95.2 ± 7.7%. Regarding `CC1(C)CCC(NC(=O)[C@@H](N)CCC(=O)O)CC1` [CR 2249], the “% 25 nM CA200645 binding” value under setting [1] worked out at 109.1 ± 19.6%. Take `O=c1cc(-c2ccccc2F)[nH]c2cc3c(cc12)OCO3` [CHM-1 hydrate]: the “% 25 nM CA200645 binding” value was 97.3 ± 5.3%. The same measure, in the same setting: under `C[C@]12CC[C@@H]3c4ccc(O)cc4CC[C@H]3[C@@H]1CCC2=O` [Estrone] stands 91.0 ± 8.5%; under `O=NN(CCCl)C(=O)NCCCl` [Carmustine], 102.2 ± 1.0%. Turning to `COc1ccc(C2CNC(=O)C2)cc1OC1CCCC1` (centres unmarked) [Rolipram], the “% 25 nM CA200645 binding” value under setting [2] was determined as 98.7 ± 10.9%.

For the compound `S=c1[nH]c(-c2ccccc2)cn1-c1ccccc1` [KRM-III], the “% 25 nM CA200645 binding” value was found to be 70.4 ± 12.2%. Same read-out and setting: under `Cl.NC[C@@H]1O[C@H](C23CC4CC(CC(C4)C2)C3)Cc2c1ccc(O)c2O` [A-77636 hydrochloride] stands 87.3 ± 8.5%. With `CCCCC#Cc1nc(NC)c2ncn([C@@H]3O[C@H](CO)[C@@H](O)[C@H]3O)c2n1` [HEMADO, reference compound], the “% 25 nM CA200645 binding” value is reported as 40.1 ± 10.4% and the “% Total CA200645 binding” value was determined as 40.1 ± 10.5%. For `N#Cc1cc2nc([O-])c([O-])nc2cc1[N+](=O)[O-].[Na+].[Na+]` [CNQX disodium], the “% 25 nM CA200645 binding” value is on record as 94.7 ± 15.8%.

Consider `Brc1c(NC2=NCCN2)ccc2nccnc12` [UK 14,304], for which the “% 25 nM CA200645 binding” value is given as 102.1 ± 10.4%. On the same count and under the same terms, under `C[C@@]12C(=O)OC(=O)[C@]1(C)[C@H]1CC[C@@H]2O1` [Cantharidin] stands 89.3 ± 25.6%; under `COc1ccccc1N1CCNCC1.Cl`, 114.8 ± 8.3%. Still for that read-out and setting: in the case of `Cc1ccc(S(=O)(=O)NC(=O)NN2CCCCCC2)cc1` [Tolazamide] it was 109.2 ± 9.0%; in that of `Cl.OC1CCCCC1N1CCC(c2ccccc2)CC1` (racemic) [(±)-Vesamicol hydrochloride], 112.9 ± 7.4%. Same read-out and setting: in the case of `COc1cccc(OC)c1OCCNCC1COc2ccccc2O1.Cl` (centres unmarked) [WB-4101 hydrochloride] it was 76.0 ± 5.8%. Take `NC(=O)c1cccc(N)c1` [3-aminobenzamide]: under “compounds tested at 10 µM, % of control wells (1% DMSO and 25 nM CA200645), […], mean ± SD, three experiments in duplicate”, the “% 25 nM CA200645 binding” value stood at 91.6 ± 2.5%. Turning to `NCC(CP(=O)(O)O)c1ccc(Cl)cc1` (centres unmarked) [Phaclofen], the “% 25 nM CA200645 binding” value is listed as 107.2 ± 18.9%. On to `CCCCNc1c(C(=O)OCC)c(C)nc2c1cnn2CC` [Tracazolate], for which the “% 25 nM CA200645 binding” value under setting [2] is reported as 98.9 ± 4.3%. Regarding `COc1cccc(-c2cc(=O)c3ccccc3o2)c1N` [PD 98,059], the “% 25 nM CA200645 binding” value was determined as 80.7 ± 2.6%. As to `CCCN(CC1CC1)c1nc(C)nc(Nc2c(Cl)cc(Cl)cc2Cl)c1Cl` [NBI 27914], the “% 25 nM CA200645 binding” value came to 89.7 ± 7.0%. Still for that read-out and setting: under `CCc1cccc2c3c([nH]c12)C(CC)(CC(=O)O)OCC3` (centres unmarked) [Etodolac] stands 97.1 ± 13.7%. On the same count and under the same terms, in the case of `O=C1CCc2cc(OCCCCc3nnnn3C3CCCCC3)ccc2N1` [Cilostazol] it was 105.8 ± 41.7%; in that of `Br.CO[C@H]1CC=C2CCN3CCC4=C(CC(=O)OC4)[C@]23C1` [Dihydro-beta-erythroidine hydrobromide], 94.0 ± 5.4%. Consider `C[N+](C)(C)CCO.[Br-]` [Choline bromide], for which the “% 25 nM CA200645 binding” value came to 100.0 ± 6.6%. For the compound `CCN(CC)CCOc1ccc(Nc2ncc3cc(-c4c(Cl)cccc4Cl)c(=O)n(C)c3n2)cc1.O` [PD-166285 hydrate], the “% 25 nM CA200645 binding” value was determined as 108.1 ± 4.5%. `CC(N/C(=N\C#N)Nc1ccncc1)C(C)(C)C` (centres unmarked) [Pinacidil]: the “% 25 nM CA200645 binding” value is given as 105.1 ± 8.3%. Still for that read-out and setting: in the case of `Cl.O=c1[nH]oc2c1CCNC2` [THIP hydrochloride] it was 100.3 ± 3.4%; in that of `CC(C(O)c1ccc(O)cc1)N1CCC(Cc2ccccc2)CC1.CC(C(O)c1ccc(O)cc1)N1CCC(Cc2ccccc2)CC1.O=C(O)C(O)C(O)C(=O)O` (centres unmarked) [Ifenprodil tartrate], 95.4 ± 10.6%.

On to `Nc1ncnc2c1ncn2[C@@H]1O[C@H](CO)[C@@H](O)[C@H]1O` [adenosine], for which the “% 25 nM CA200645 binding” value under setting [1] is on record as 92.3 ± 7.9%. On to `Clc1ccc2nsnc2c1NC1=NCCN1` [Tizanidine hydrochloride], for which the “% 25 nM CA200645 binding” value was found to be 107.2 ± 6.1%. For `CC1CCN=C(N)S1.Cl` (racemic) [(±)-AMT hydrochloride], the “% 25 nM CA200645 binding” value amounted to 100.6 ± 12.5%. The same measure, in the same setting: in the case of `OC[C@H]1O[C@@H](n2cnc3c(NC4CCCCC4)ncnc32)[C@H](O)[C@@H]1O` [N6-Cyclohexyladenosine] it was 92.9 ± 12.9%. The same measure, in the same setting: under `CCCCCCCCc1ccc(-c2ccc(C(=O)O)cc2)cc1` [AC-55649] stands 83.6 ± 13.2%; under `COc1cc(CC(=O)O)ccc1O` [4-Hydroxy-3-methoxyphenylacetic acid], 94.9 ± 9.6%; under `Nc1ncnc2c1ncn2C1CCCC1` [9-cyclopentyladenine], 102.2 ± 2.7%.
